The results in this text go back to ChEMBL document CHEMBL6083290, “Proline Analogues in Drug Design: Current Trends and Future Prospects” (J Med Chem, 2024).

The target in series [1] is T1, Replicase polyprotein 1ab (Severe acute respiratory syndrome coronavirus 2, UniProt P0DTD1).
Description: Inhibition of SARS-CoV-2 main protease
The target of series [2] is T1, Replicase polyprotein 1ab. This is another data set of the same source.
Description: Inhibition of SARS-CoV-2 main protease extracted from Escherichia coli BL21 (DE3) cells
Series [3] can be described thus: Lipophilicity, logP of compound. The note with it: octanol/water.
For another series, the system named is SARS-CoV-2. Briefly: microbe, parasite or virus in culture. The conditions noted are these: Severe acute respiratory syndrome coronavirus 2, 2019-nCoV Muc-IMB-1, Vero C1008, 48 h.
For series [4], the target named is Endothelial PAS domain-containing protein 1 (Homo sapiens, UniProt Q99814). The series is described as follows: Binding affinity to HIF-2alpha (unknown origin) assessed as dissociation constant.
Endothelial PAS domain-containing protein 1, sequence (Q99814 whole entry, the tested form may be a part): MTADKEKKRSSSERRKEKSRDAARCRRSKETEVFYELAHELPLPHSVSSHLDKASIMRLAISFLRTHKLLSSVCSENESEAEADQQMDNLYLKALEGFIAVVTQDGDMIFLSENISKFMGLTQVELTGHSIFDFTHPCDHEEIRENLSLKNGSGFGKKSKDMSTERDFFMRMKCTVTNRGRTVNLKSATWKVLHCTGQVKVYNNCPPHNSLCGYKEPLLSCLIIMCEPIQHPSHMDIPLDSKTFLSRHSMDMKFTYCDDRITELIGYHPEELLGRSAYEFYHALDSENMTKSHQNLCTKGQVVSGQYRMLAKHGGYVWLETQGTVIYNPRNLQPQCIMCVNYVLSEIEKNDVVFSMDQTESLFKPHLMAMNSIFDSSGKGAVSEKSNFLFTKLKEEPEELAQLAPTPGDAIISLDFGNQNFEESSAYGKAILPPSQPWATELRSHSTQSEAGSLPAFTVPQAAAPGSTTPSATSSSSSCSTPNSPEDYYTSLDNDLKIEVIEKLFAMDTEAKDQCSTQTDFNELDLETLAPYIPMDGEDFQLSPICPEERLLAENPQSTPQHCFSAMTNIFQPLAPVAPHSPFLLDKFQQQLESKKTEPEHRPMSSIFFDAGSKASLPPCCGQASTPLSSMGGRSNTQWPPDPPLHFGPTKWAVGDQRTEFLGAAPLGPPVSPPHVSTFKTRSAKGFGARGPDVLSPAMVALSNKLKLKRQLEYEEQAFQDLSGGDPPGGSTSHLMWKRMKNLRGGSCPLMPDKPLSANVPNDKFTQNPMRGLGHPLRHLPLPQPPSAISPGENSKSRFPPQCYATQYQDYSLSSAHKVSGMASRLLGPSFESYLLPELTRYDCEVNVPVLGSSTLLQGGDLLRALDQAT
Series [5] can be described thus: Inhibition of Glutamate receptor (unknown origin).
The target of a further series is T2, Renin (Homo sapiens, UniProt P00797).
T2 sequence (P00797 whole entry): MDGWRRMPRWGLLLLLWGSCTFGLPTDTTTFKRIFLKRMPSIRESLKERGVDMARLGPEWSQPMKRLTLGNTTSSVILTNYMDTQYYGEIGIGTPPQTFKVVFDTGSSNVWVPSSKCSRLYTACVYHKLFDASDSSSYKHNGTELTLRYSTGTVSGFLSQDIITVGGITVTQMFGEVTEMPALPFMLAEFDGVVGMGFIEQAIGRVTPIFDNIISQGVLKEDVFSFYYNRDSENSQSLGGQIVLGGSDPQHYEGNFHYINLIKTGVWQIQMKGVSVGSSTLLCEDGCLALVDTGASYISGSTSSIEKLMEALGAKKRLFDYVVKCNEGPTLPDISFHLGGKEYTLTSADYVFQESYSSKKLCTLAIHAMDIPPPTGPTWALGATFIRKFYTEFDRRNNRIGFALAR
Briefly: Inhibition of renin (unknown origin) using Arg-Glu(EDANS)-lle-His-Pro-Phe-His-Leu-Val-lle-His-Thr-Lys(dabcyl)-Arg as substrate incubated for 10 mins by fluorescence based assay.

In a further series the test system is MCF7. The series is described as follows: Antiproliferative activity against human MCF7 cells assessed as reduction in cell viability incubated for 48 hrs by MTT assay. The conditions noted are these: MCF7, 48 h. (In general: Formazan colour is commonly taken as a measure of viable cells.)
The next series concerns L-363. Briefly: Antiproliferative activity against human L-363 cells assessed as reduction in cell growth incubated for 72 hrs by MTT assay. The conditions noted are these: L-363, 72 h.
Series [6] deals with Phosphatidylinositol 4,5-bisphosphate 3-kinase catalytic subunit alpha isoform (Homo sapiens, UniProt P42336). Briefly: Inhibition of PI3Kalpha (unknown origin) using PIP2 as substrate measured after 30 mins by TR-FRET assay. In general terms: Time-resolved FRET reads energy transfer from a long-lived donor to a nearby acceptor.
Phosphatidylinositol 4,5-bisphosphate 3-kinase catalytic subunit alpha isoform, sequence (P42336 whole entry, canonical isoform): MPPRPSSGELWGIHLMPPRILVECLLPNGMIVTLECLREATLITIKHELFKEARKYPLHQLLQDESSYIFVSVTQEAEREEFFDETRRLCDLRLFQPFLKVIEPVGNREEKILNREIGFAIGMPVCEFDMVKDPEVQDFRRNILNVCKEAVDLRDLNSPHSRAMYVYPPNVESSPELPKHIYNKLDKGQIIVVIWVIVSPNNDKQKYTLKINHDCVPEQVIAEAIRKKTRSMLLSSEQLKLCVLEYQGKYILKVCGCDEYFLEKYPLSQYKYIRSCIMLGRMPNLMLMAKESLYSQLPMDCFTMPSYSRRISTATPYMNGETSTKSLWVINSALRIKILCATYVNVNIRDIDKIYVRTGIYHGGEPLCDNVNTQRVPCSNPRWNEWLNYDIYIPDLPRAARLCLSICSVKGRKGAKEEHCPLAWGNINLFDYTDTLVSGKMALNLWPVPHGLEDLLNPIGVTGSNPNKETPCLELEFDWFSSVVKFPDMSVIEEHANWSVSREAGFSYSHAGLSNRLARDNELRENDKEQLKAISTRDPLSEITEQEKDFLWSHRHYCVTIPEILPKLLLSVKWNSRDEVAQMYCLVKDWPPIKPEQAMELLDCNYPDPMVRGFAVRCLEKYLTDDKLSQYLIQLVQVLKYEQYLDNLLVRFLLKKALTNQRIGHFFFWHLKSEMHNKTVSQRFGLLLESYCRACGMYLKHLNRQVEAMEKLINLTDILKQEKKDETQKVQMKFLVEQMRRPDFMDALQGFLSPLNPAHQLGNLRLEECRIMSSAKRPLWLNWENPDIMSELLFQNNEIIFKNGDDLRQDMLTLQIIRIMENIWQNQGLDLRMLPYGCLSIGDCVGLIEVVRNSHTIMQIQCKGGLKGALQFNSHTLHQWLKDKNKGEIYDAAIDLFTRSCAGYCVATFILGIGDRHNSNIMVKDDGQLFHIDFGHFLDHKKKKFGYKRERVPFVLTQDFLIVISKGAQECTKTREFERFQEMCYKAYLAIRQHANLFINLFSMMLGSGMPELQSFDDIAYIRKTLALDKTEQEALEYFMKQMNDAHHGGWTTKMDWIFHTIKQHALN
A short description of series [7]: Metabolic stability in rat liver microsomes assessed as half life. On the technique in general: Microsomes from liver hold many membrane-bound enzymes, among them those of drug oxidation.
The next series in a line: in vitro. The conditions noted are these: rat, plasma.

Starred links: 1 amine or outer side, 2 acyl side, 3 side chain; linkers in the order of their positions; H or OH if unused. Non-standard residues stand in square brackets, D forms with d. Residues, ends and D or L forms follow the SMILES beside them. ξ: configuration not given here. *: point of attachment. X3 = CC(C)C[C@H](N[*:1])[C@H](O)C[C@H](C(=O)[*:2])C(C)C; X2 = O=C(C1[C@@H](F)[C@@H](O)CN1[*:1])[*:2]; X1 = O=C(C1[C@H](F)[C@@H](O)CN1[*:1])[*:2]; ξPro(4R-OH) = O=C(O)C1C[C@@H](O)CN1; NHCH2(2-pyridyl) = c1ccc(CN*)nc1; αMeP = C[C@@]1(C(=O)O)CCCN1; Boc = CC(C)(C)OC(=O)*

Description for SARS-CoV-2: Antiviral activity against SARS-CoV-2 2019-nCoV Muc-IMB-1 infected in Vero E6 cells assessed as reduction in viral replication measured after 48 hrs by qRT-PCR analysis

As to `COc1ccc2nccc(C(=O)NCC(=O)N3CC(F)(F)C[C@H]3C#N)c2c1`, it took 9 nM to reach half-maximal inhibition in series [1] (IC50).
Same read-out and setting: as for `Cc1c(COc2cc(OCc3cccc(C#N)c3)c(CN3C[C@H](O)C[C@@H]3C(=O)O)cc2Cl)cccc1-c1ccc2c(c1)OCCO2`, the figure is 10.9 nM.
As for `COc1ccc(/C=C/C(=O)N2C[C@@H](NC(=O)c3cccnc3)C[C@H]2C(=O)NO)cc1OC`, half-maximal inhibition in [2] (IC50) was put at 9 nM. The logP in [3] is 0.1.
For the molecule `CC(C)(C)[C@H](NC(=O)C(F)(F)F)C(=O)N1C[C@H]2[C@@H]([C@H]1C(=O)N[C@H](C#N)C[C@@H]1CCNC1=O)C2(C)C`, in the series on SARS-CoV-2, the response was half-maximal at 5600 nM (EC50).
In the series on SARS-CoV-2, `COc1cccc2[nH]c(C(=O)N[C@@H](CC(C)C)C(=O)N[C@H](C#N)C[C@@H]3CCNC3=O)cc12` showed a 50% effective concentration (EC50) of 1200 nM.
Same read-out and setting: in the case of `COc1cccc2[nH]c(C(=O)N3C[C@H]4[C@@H]([C@H]3C(=O)N[C@@H](C[C@@H]3CCNC3=O)C(=O)c3nc5ccccc5s3)C4(C)C)cc12` it was 1400 nM.
Turning to `CC(=O)N[C@@H](C(=O)N1C[C@H](O)[C@H](F)C1C(=O)NCc1ccc(-c2scnc2C)cc1)C(C)(C)C` (some centres not stated), the Kd in series [4] was 0.24 nM.
In series [2], `C[C@@H](C(=O)N[C@H](C(=O)N1C[C@H](OC(F)F)C[C@H]1C(=O)N[C@H](C#N)C[C@@H]1CCNC1=O)C(C)(C)C)N(C)C(=O)CCCCCNc1cccc2c1C(=O)N(C1CCC(=O)NC1=O)C2=O` (some centres not stated) registered an IC50 of 182 nM.
As for `CC(=O)N[C@@H](C(=O)N1C[C@H](O)[C@@H](F)C1C(=O)NCc1ccc(-c2scnc2C)cc1)C(C)(C)C` (some centres not stated), the Kd in [4] stood at 3.1 nM.
In series [5], `O=C(O)[C@@H]1C[C@H]2C[C@H](CN3CC(F)(F)C[C@H]3C(=O)O)CC[C@H]2CN1` returned an IC50 of 45 nM.
At Renin, `CC[C@H](C)[C@H](NC(=O)[C@@H](C[C@@H](O)[C@H](CC(C)C)NC(=O)[C@H](Cc1c[nH]cn1)NC(=O)[C@H](Cc1ccccc1)NC(=O)[C@]1(C)CCCN1C(=O)OC(C)(C)C)C(C)C)C(=O)NCc1ccccn1` (Boc-[αMeP]FH[X3]I-{NHCH2(2-pyridyl)}) showed an IC50 of 2 nM.
For the molecule `CC[C@H](C)[C@H](NC(=O)[C@H](CCC(=O)O)NC(=O)[C@H](Cc1ccccc1)NC(=O)[C@H](CC(=O)O)NC(=O)[C@H](CC(=O)O)NC(=O)[C@H](CC(=O)O)NC(=O)[C@H](CCSC)NC(=O)[C@@H]1CCCN1C(=O)[C@H](Cc1ccc(O)cc1)NC(=O)C1[C@H](F)[C@@H](O)CN1C(=O)[C@H](C)NC(=O)[C@H](CC(C)C)NC(=O)[C@H](C)NC(=O)[C@H](CCC(=O)O)NC(=O)[C@@H](N)CC(=O)O)C(=O)N[C@@H](CCCNC(=N)N)C(=O)N[C@@H](CO)C(=O)N[C@@H](Cc1ccccc1)C(=O)O` (some centres not stated) (H-DEALA[X1]YPMDDDFEIRSF-OH), the Kd in series [4] stood at 52 nM.
Still for that read-out and setting: as for `CC[C@H](C)[C@H](NC(=O)[C@H](CCC(=O)O)NC(=O)[C@H](Cc1ccccc1)NC(=O)[C@H](CC(=O)O)NC(=O)[C@H](CC(=O)O)NC(=O)[C@H](CC(=O)O)NC(=O)[C@H](CCSC)NC(=O)[C@@H]1CCCN1C(=O)[C@H](Cc1ccc(O)cc1)NC(=O)C1[C@@H](F)[C@@H](O)CN1C(=O)[C@H](C)NC(=O)[C@H](CC(C)C)NC(=O)[C@H](C)NC(=O)[C@H](CCC(=O)O)NC(=O)[C@@H](N)CC(=O)O)C(=O)N[C@@H](CCCNC(=N)N)C(=O)N[C@@H](CO)C(=O)N[C@@H](Cc1ccccc1)C(=O)O` (some centres not stated) (H-DEALA[X2]YPMDDDFEIRSF-OH), the figure is 12 nM.
The same measure, in the same setting: in the case of `CC[C@H](C)[C@H](NC(=O)[C@H](CCC(=O)O)NC(=O)[C@H](Cc1ccccc1)NC(=O)[C@H](CC(=O)O)NC(=O)[C@H](CC(=O)O)NC(=O)[C@H](CC(=O)O)NC(=O)[C@H](CCSC)NC(=O)[C@@H]1CCCN1C(=O)[C@H](Cc1ccc(O)cc1)NC(=O)C1C[C@@H](O)CN1C(=O)[C@H](C)NC(=O)[C@H](CC(C)C)NC(=O)[C@H](C)NC(=O)[C@H](CCC(=O)O)NC(=O)[C@@H](N)CC(=O)O)C(=O)N[C@@H](CCCNC(=N)N)C(=O)N[C@@H](CO)C(=O)N[C@@H](Cc1ccccc1)C(=O)O` (stereo partly drawn) (H-DEALA[ξPro(4R-OH)]YPMDDDFEIRSF-OH) it was 11 nM.
In the case of `Cc1nc(NC(=O)N2CCC[C@H]2C(N)=O)sc1-c1ccnc(C(C)(C)C(F)(F)F)c1` [ALPELISIB], the IC50 in the series with MCF7 was determined as 1200 nM; in the series on L-363, 170 nM.
On to `O=C(/C=C/c1cccc(S(=O)(=O)Nc2ccccc2)c1)NO` [BELINOSTAT], for which the IC50 in series [6] worked out at 2.9 nM; in the series on MCF7, 1200 nM; in the series on L-363, 170 nM.
For the molecule `CS(=O)(=O)c1cncc(C(=O)N2[C@@H](C(=O)N[C@@H](c3cc(F)c(C(F)(F)F)cc3F)C3CC3)C[C@H]3C[C@H]32)c1` [NELUTROCTIV], the half-life in series [7] was 30 min.
As for `C[C@@]1(C(=O)N[C@@H](CCC(=O)O)C(=O)O)CCCN1C(=O)CN` [TROFINETIDE] (H-Gly-[αMeP]-Glu-OH), the half-life in “in vitro” was found to be 49 min.

A word on the IC50: it is the concentration at which inhibition is half-maximal. For orientation: logP means a log measure of how a compound divides between an organic and an aqueous phase. A higher logP goes with a more lipophilic compound. A word on the EC50: it is the concentration at which the effect is half-maximal. Higher therefore signals lower potency in that assay. For orientation: Kd means the equilibrium constant for the complex coming apart. By half-life is commonly meant how long it takes for the measured level to halve.
